Tests used:
Type in all cases: cell-based
NK1 = NK1 (Homo sapiens, UniProt P25103); test: Signal transduction (ST), intracellular Ca++ (FLIPR), functional NK1 antagonistic activity; conditions: antagonist, read-out: NK1 pIC50 (converted)
Experimental: (§1) This test evaluates in vitro functional NK1 antagonistic activity. For the measurements of intracellular Ca^++ concentrations the cells were grown on 96-well (black wall/transparent bottom) plates from Costar for 2 days until they reached confluence. The cells were loaded with 2 μM Fluo3 in DMEM containing 0.1% BSA and 2.5 mM probenecid for 1 h at 37° C. They were washed 3× with a Krebs buffer (140 mM NaCl, 1 mM MgCl2×6H2O, 5 mM KCl, 10 mM glucose, 5 mM HEPES; 1.25 mM CaCl2; pH 7.4) containing 2.5 mM probenecid and 0.1% BSA (Ca^++-buffer). The cells were preincubated with a concentration range of antagonists for 20 min at RT and Ca^++-signals after addition of the agonists were measured in a Fluorescence Image Plate Reader (FLIPR from Molecular Devices, Crawley, England). The peak of the Ca^++-transient was considered as the relevant signal and the mean values of corresponding wells were analysed as described below.
(§2) The sigmoidal dose response curves were analysed by computerised curve-fitting, using the GraphPad Program. The EC50-value of a compound is the effective dose showing 50% of maximal effect. For mean curves the response to the agonist with the highest potency was normalised to 100%. For antagonist responses the IC50-value was calculated using non-linear regression.
(§3) The last columns indicate—without being limited thereto—for which action the compounds might be most suitable. Of course, since for some neurokinin receptors no data was determined, it is obvious that these compounds might be attributed to another suitable use.

NK3 = target: T1, NK3 (Homo sapiens, UniProt P29371); test: Signal transduction (ST), intracellular Ca++ (FLIPR), NK3; conditions: antagonist, read-out: NK3 pIC50 (converted)
T1 sequence (P29371 1-465): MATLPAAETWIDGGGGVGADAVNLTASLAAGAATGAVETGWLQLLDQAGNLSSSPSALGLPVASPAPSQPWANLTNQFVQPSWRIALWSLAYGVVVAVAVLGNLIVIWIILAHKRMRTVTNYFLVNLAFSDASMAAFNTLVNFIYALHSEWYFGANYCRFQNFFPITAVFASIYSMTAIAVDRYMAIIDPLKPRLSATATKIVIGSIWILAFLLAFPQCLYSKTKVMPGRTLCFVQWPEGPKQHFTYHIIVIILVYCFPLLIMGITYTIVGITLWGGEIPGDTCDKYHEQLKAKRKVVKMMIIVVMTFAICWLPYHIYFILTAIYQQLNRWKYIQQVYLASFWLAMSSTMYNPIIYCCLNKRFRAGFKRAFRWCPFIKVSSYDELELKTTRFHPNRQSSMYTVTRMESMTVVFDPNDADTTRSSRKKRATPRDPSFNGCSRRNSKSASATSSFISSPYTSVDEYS
Experimental: [The source words this procedure for another target and reports this target under the same test.] as §1, §2, §3

NK2 = target: T2, NK2 (Homo sapiens, UniProt P21452); test: Signal transduction (ST), intracellular Ca++ (FLIPR), NK2; conditions: antagonist, read-out: NK2 pIC50 (converted)
T2 sequence (P21452 1-398): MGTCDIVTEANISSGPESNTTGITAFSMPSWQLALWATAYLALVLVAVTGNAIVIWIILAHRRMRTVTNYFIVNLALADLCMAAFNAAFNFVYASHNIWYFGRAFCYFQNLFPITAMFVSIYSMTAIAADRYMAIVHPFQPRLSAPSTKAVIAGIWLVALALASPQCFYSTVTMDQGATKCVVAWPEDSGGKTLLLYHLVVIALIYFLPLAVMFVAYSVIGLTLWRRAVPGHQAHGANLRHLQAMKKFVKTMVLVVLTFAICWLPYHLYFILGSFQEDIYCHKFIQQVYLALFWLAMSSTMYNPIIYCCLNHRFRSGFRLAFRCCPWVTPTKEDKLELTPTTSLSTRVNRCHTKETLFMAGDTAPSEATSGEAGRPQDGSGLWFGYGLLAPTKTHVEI
Experimental: [The source words this procedure for another target and reports this target under the same test.] as §1, §2, §3

Sequence of NK1 (P25103 whole entry): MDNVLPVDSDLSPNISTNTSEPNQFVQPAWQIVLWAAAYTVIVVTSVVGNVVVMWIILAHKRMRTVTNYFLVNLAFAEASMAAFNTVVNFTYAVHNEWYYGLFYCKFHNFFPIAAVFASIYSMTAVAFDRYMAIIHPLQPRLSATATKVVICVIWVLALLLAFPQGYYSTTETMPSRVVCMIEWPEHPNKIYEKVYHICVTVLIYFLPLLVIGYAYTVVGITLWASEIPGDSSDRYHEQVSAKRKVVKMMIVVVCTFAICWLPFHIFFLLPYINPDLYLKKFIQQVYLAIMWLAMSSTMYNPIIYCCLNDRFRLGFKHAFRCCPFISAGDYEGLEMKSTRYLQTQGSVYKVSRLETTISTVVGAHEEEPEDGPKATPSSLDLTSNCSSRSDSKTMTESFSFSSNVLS

IC50 (NK1) [nM]	IC50 (NK3) [nM]	IC50 (NK2) [nM]	Structure (SMILES)
93.3	> 10000	9770	O=C(CC1CCCCC1)N1CCC2(CC1)CCN([C@H]1CCN(C(=O)c3cc(C(F)(F)F)cc(C(F)(F)F)c3)[C@H](Cc3ccccc3)C1)CC2 [Compound 71]
263	> 10000	4680	O=C(c1cc(C(F)(F)F)cc(C(F)(F)F)c1)N1CC[C@H](N2CCC3(CC2)CCN(S(=O)(=O)Cc2cccc(Cl)c2)CC3)C[C@H]1Cc1ccccc1 [Compound 127]
245	7240	4570	O=C1CC2(CCN1Cc1ccccc1F)CCN([C@H]1CCN(C(=O)c3cc(C(F)(F)F)cc(C(F)(F)F)c3)[C@H](Cc3ccccc3)C1)CC2 [Compound 202]
355	> 10000	5370	O=C(c1cc(C(F)(F)F)cc(C(F)(F)F)c1)N1CC[C@H](N2CCC3(CCN(C(=O)C4(c5ccccc5)CCCC4)CC3)CC2)C[C@H]1Cc1ccccc1 [Compound 90]
28.8	> 10000	6760	O=C(c1ccsc1)N1CCC2(CC1)CCN(C(=O)[C@H]1CCN(C(=O)c3cc(C(F)(F)F)cc(C(F)(F)F)c3)[C@H](Cc3ccccc3)C1)CC2 [Compound 189]
148	> 10000	2510	O=C(c1cc(C(F)(F)F)cc(C(F)(F)F)c1)N1CC[C@H](N2CCC3(CCN(C(=O)C4(c5ccccc5)CC4)CC3)CC2)C[C@H]1Cc1ccccc1 [Compound 89]
14.8	> 10000	8320	O=C(C1CCOC1)N1CCC2(CCN(C[C@H]3CCN(C(=O)c4cc(C(F)(F)F)cc(C(F)(F)F)c4)[C@H](Cc4ccccc4)C3)CC2)CC1 (stereo partly drawn) [Compound 180]
148	> 10000	8510	O=C(C1=CCCCC1)N1CCC2(CC1)CCN([C@H]1CCN(C(=O)c3cc(C(F)(F)F)cc(C(F)(F)F)c3)[C@H](Cc3ccccc3)C1)CC2 [Compound 41]
132	575	> 10000	O=C(c1cc(C(F)(F)F)cc(C(F)(F)F)c1)N1CC[C@H](N2CCC3(CC2)CCN(S(=O)(=O)c2ccc(Cl)s2)CC3)C[C@H]1Cc1ccccc1 [Compound 94]
93.3	5750	6920	O=C(C1CC1)N1CCCC2(CCN([C@H]3CCN(C(=O)c4cc(C(F)(F)F)cc(C(F)(F)F)c4)[C@H](Cc4ccccc4)C3)CC2)C1 [Compound 172]
40.7	> 10000	6920	O=C(C1CCOC1)N1CCCC2(CCN([C@H]3CCN(C(=O)c4cc(C(F)(F)F)cc(C(F)(F)F)c4)[C@H](Cc4ccccc4)C3)CC2)C1 (stereo partly drawn) [Compound 174]
437	> 10000	4900	O=C(c1cc(C(F)(F)F)cc(C(F)(F)F)c1)N1CC[C@H](CN2CCC3(CCN(Cc4ccccc4)CC3)CC2)C[C@H]1Cc1ccccc1 [Compound 178]
38	9120	> 10000	O=C(c1ccsc1)N1CCC2(CCN(C[C@H]3CCN(C(=O)c4cc(C(F)(F)F)cc(C(F)(F)F)c4)[C@H](Cc4ccccc4)C3)CC2)CC1 [Compound 182]
112	3720	1200	COc1ccc(S(=O)(=O)N2CCC3(CCN([C@H]4CCN(C(=O)c5cc(C(F)(F)F)cc(C(F)(F)F)c5)[C@H](Cc5ccccc5)C4)CC3)CC2)cc1 [Compound 121]
20.4	3310	4470	Cc1occc1C(=O)N1CCC2(CC1)CCN([C@H]1CCN(C(=O)c3cc(C(F)(F)F)cc(C(F)(F)F)c3)[C@H](Cc3ccccc3)C1)CC2 [Compound 27]
138	> 10000	> 10000	O=C(c1ncccc1O)N1CCC2(CC1)CCN([C@H]1CCN(C(=O)c3cc(C(F)(F)F)cc(C(F)(F)F)c3)[C@H](Cc3ccccc3)C1)CC2 [Compound 53]

IC50 (NK1) [nM]	IC50 (NK3) [nM]	IC50 (NK2) [nM]	Structure (SMILES)
105	> 10000	3630	N#Cc1ccc(C(=O)N2CCC3(CC2)CCN([C@H]2CCN(C(=O)c4cc(C(F)(F)F)cc(C(F)(F)F)c4)[C@H](Cc4ccccc4)C2)CC3)cc1 [Compound 43]
43.7	4470	2820	CC(C)(C)C(=O)N1CCC2(CC1)CCN([C@@H]1CCN(C(=O)c3cc(C(F)(F)F)cc(C(F)(F)F)c3)[C@H](Cc3ccccc3)C1)CC2 [Compound 8]
25.7	501	1100	O=C(c1cc(C(F)(F)F)cc(C(F)(F)F)c1)N1CC[C@H](N2CCC3(CC2)CCN(S(=O)(=O)c2ccsc2)CC3)C[C@H]1Cc1ccccc1 [Compound 93]
219	~10000	2820	Cc1noc(C)c1CN1CCC2(CCN([C@@H]3CCN(C(=O)c4cc(C(F)(F)F)cc(C(F)(F)F)c4)[C@H](Cc4ccccc4)C3)CC2)CC1=O [Compound 201]
129	> 10000	> 10000	C/C(=C\C(=O)N1CCC2(CC1)CCN([C@H]1CCN(C(=O)c3cc(C(F)(F)F)cc(C(F)(F)F)c3)[C@H](Cc3ccccc3)C1)CC2)C(F)(F)F [Compound 86]
324	> 10000	> 10000	O=C(CC12CC3CC(CC(C3)C1)C2)N1CCC2(CC1)CCN([C@H]1CCN(C(=O)c3cc(C(F)(F)F)cc(C(F)(F)F)c3)[C@H](Cc3ccccc3)C1)CC2 [Compound 72]
17	692	2000	O=C(C1CC1)N1CCC2(CC1)CCN([C@H]1CCN(C(=O)c3cc(C(F)(F)F)cc(C(F)(F)F)c3)[C@H](Cc3ccc(F)c(F)c3)C1)CC2 [Compound 136]
64.6	6610	3090	CC(C)(C)CC(=O)N1CCC2(CC1)CCN([C@H]1CCN(C(=O)c3cc(C(F)(F)F)cc(C(F)(F)F)c3)[C@H](Cc3ccccc3)C1)CC2 [Compound 69]
170	> 10000	> 10000	O=C(CN1CCOC1=O)N1CCC2(CC1)CCN([C@H]1CCN(C(=O)c3cc(C(F)(F)F)cc(C(F)(F)F)c3)[C@H](Cc3ccccc3)C1)CC2 [Compound 79]
41.7	7080	5890	O=C(c1ccsc1)N1CCC2(CC1)CCN([C@H]1CCN(C(=O)c3cc(C(F)(F)F)cc(C(F)(F)F)c3)[C@H](Cc3ccc(F)c(F)c3)C1)CC2 [Compound 141]
23.4	1780	~2570	CC(=O)Nc1ccc(S(=O)(=O)N2CCC3(CCN([C@H]4CCN(C(=O)c5cc(C(F)(F)F)cc(C(F)(F)F)c5)[C@H](Cc5ccccc5)C4)CC3)CC2)cc1 [Compound 124]
115	> 10000	> 10000	CC(C)(C)C(=O)N1CCC2(CC1)CCN([C@H]1CCN(C(=O)c3cc(C(F)(F)F)cc(C(F)(F)F)c3)[C@H](Cc3ccccc3)C1)CC2 [Compound 7]
66.1	> 10000	~10000	Cc1cc(=O)oc(C)c1C(=O)N1CCC2(CC1)CCN([C@H]1CCN(C(=O)c3cc(C(F)(F)F)cc(C(F)(F)F)c3)[C@H](Cc3ccccc3)C1)CC2 [Compound 47]
105	2000	2450	Cc1ccc(S(=O)(=O)N2CCC3(CCN([C@H]4CCN(C(=O)c5cc(C(F)(F)F)cc(C(F)(F)F)c5)[C@H](Cc5ccccc5)C4)CC3)CC2)cc1 [Compound 105]
240	4680	4680	O=C(c1cc(C(F)(F)F)cc(C(F)(F)F)c1)N1CC[C@H](N2CCC3(CCN(C(=O)C45CC6CC(CC(C6)C4)C5)CC3)CC2)C[C@H]1Cc1ccccc1 [Compound 60]
